Experimental findings from patent US7381723B2, “Azabicyclylmethyl derivatives of 7,8-dihydro-1,6,9,-trioxa-3-aza-cyclopenta[a]naphthalene as 5-HT1A antagonists” (Wyeth, priority 2001, dated 2008) are described below.

By Ki is commonly meant a measure of affinity in units of concentration, obtained from inhibition or displacement. As usually defined, the IC50 is the concentration at which inhibition is half-maximal. One may read the melting point as the temperature, or range, at which the solid turns liquid.

The target in one series is T1, human 5-HT1A receptors (Homo sapiens, UniProt P08908).
T1 construct: expressed in transfected cells; host or cells: CHO cells
T1 sequence (P08908 1-422): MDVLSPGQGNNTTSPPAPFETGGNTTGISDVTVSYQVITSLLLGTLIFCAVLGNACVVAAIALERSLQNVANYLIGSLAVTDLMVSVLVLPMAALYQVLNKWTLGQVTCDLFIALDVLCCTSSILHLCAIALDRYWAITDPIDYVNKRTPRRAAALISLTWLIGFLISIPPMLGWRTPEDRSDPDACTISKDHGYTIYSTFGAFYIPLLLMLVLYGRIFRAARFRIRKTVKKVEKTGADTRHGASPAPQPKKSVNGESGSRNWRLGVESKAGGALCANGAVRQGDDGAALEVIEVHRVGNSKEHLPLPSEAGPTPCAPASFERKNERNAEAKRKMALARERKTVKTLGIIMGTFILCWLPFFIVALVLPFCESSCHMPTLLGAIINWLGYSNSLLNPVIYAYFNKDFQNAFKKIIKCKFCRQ
As to the kind of experiment: [3H] 8-OH-DPAT displacement from 5-HT1A receptor (CHO cells). The format is binding. The note with it: displacement of [3H] 8-OH-DPAT, CHO cells stably transfected with human 5-HT1A; read-out: 5-HT1A Receptor Affinity KI. The text has this:
High affinity for the serotonin 5-HT1A receptor was established by testing the claimed compound's ability to displace [^3H] 8-OH-DPAT (dipropylaminotetralin) from the 5-HT1A serotonin receptor following a modification of the procedure of Hall et al., J. Neurochem. 44, 1685 (1985) which utilizes CHO cells stably transfected with human 5-HT1A receptors.

Series [1] deals with T2, cloned human 5-HT1A receptors (Homo sapiens, UniProt P08908).
T2 construct: expressed in transfected cells
T2 sequence (P08908 1-422): T1 sequence (P08908 1-422)
The experiment in a line: 35S-GTPγS binding assay, antagonist activity versus 8-OH-DPAT. The format is biochemical. The conditions noted are these: reversal of 8-OH-DPAT effect on 35S-GTPγS binding; for IC50: read-out: 5-HT1A Function IC50. As for the experimental part: Antagonist activity at 5-HT1A receptors was established by using a ^35S-GTPγS binding assay similar to that used by Lazareno and Birdsall (Br. J. Pharmacol. 109: 1120, 1993), in which the test compound's ability to affect the binding of ^35S-GTPγS to membranes containing cloned human 5-HT1A receptors was determined. Agonists produce an increase in binding whereas antagonists produce no increase but rather reverse the effects of the standard agonist 8-OH-DPAT. The test compound's maximum inhibitory effect is represented as the Imax, while its potency is defined by the IC50.
(In general: GTPγS is a poorly hydrolysed GTP analogue; its binding reports G protein activation.)

`Cc1nc2ccc3c(c2o1)OC(CN1C2CCC1CC(O)(c1ccccc1)C2)CO3` (stereo not drawn) [Example 1, 8-{[2-Methyl-7,8-dihydro[1,4]dioxino[2,3-g][1,3]benzoxazol-8-yl]methyl}-3-phenyl-8-azabicyclo[3.2.1]octan-3-ol]: the melting point fell in the range of 203 to 205 °C. Moreover, the Ki at human 5-HT1A receptors came to 0.54 nM. In series [1], the “5-HT1A Function Imax (maximum inhibitory effect)” value was found to be 76% and the concentration for half-maximal inhibition (IC50) stood at 53 nM.
Compound `Cc1nc2ccc3c(c2o1)OC(CN1C2CCC1CC(O)(c1cccc(C(F)(F)F)c1)C2)CO3` (stereo not drawn) [Example 2, 8-{[2-Methyl-7,8-dihydro[1,4]dioxino[2,3-g][1,3]benzoxazol-8-yl]methyl}-3-[3-(trifluoromethyl)phenyl]-8-azabicyclo[3.2.1]octan-3-ol] registered a melting point of 148 to 150 °C. In addition, on human 5-HT1A receptors, the inhibitory constant (Ki) was 0.77 nM.
As to `Cc1nc2ccc3c(c2o1)OC(CN1C2CCC1CC(O)(c1ccc4ccccc4c1)C2)CO3` (stereo not drawn) [Example 3, 8-{[2-Methyl-7,8-dihydro[1,4]dioxino[2,3-g][1,3]benzoxazol-8-yl]methyl}-3-(2-naphthyl)-8-azabicyclo[3.2.1]octan-3-ol], at human 5-HT1A receptors, the inhibition constant Ki worked out at 3.71 nM. For the same compound, in series [1], the “5-HT1A Function Imax (maximum inhibitory effect)” value amounted to 95% and the IC50 was found to be 27 nM.
